Molecules are shown by their SMILES. Like-named read-outs stand apart in the source and are kept apart here.

Common to all, as to type: physicochemical
A short description of series [1]: Dynamic Vapor Sorption (DVS). On the procedure:
Dynamic Vapor Sorption (DVS) was done using a DVS Intrinsic 1. The sample is loaded into a sample pan and suspended from a microbalance. A typical sample mass for DVS measurement is 25 mg. Nitrogen gas bubbled through distilled water provides the desired relative humidity.
A typical measurement comprises the steps: • 1—Equilibrate at 50% RH • 2-50% to 2%. (50%, 40%, 30%, 20%, 10% and 2%) • a. Hold minimum of 5 mins and maximum of 240 minutes at each humidity. The pass criteria is less than 0.002% change • 3-2% to 95% (2%, 10%, 20%, 30%, 40%, 50%, 60%, 70%, 80%, 90%, 95%) • a. Hold minimum of 5 mins and maximum of 240 minutes at each humidity. The pass criteria is less than 0.002% change • 4-95% to 2% (95%, 80%, 70%, 60%, 50%, 40%, 30%, 20%, 10%, 2%) • a. Hold minimum of 5 mins and maximum of 240 minutes at each humidity. The pass criteria is less than 0.002% change • 5-2% to 50% (2%, 10%, 20%, 30%, 40%, 50%) • a. Hold minimum of 5 mins and maximum of 240 minutes at each humidity. The pass criteria is less than 0.002% change Dynamic Vapor Sorption Isotherm Plots of Solid Forms of Compound A⋅2MSA

A short description of series [2]: Stability of XRPD pattern on drying. The protocol: Short term slurries were carried out at two temperatures in 14 solvents. About 25 mg solid was added to a 2 mL vial followed by 0.70 mL of solvent. If all solids dissolved, more solid was added until a slurry was formed within reason. Slurries were stirred at constant temperature for four days (ambient temperature, 21-23° C.; or high temperature, 50° C.). After stirring for four days, solids were allowed to settle and were then recovered for XRPD analysis. XRPD analysis was performed on the wet cake, and if a new pattern was observed, the sample was dried in a vacuum oven at 50° C. for a minimum of 4 hours, then the dried sample was analyzed by XRPD.
Stability on Drying: A sample of Pattern B was prepared on an XRPD sample holder and analysed by XRPD to create a baseline. The disk was then left in a vacuum oven at 50° C. under static vacuum for 3 days. On the third day, the sample was removed from the oven and the “dry” pattern was recorded immediately.
(§1) Compound A⋅2MSA (Pattern A) was slurried in EtOH overnight at room temperature (ca. 16 hours). […] The bulk was dried in a vacuum oven at 50° C. under dynamic vacuum for 4.5 hours. The dried solids were removed from the oven and a “dry” XRPD analysis was collected.

The nature of series [3]: Equilibrium solubility in simulated fluids and water at 37° C. The following applies: for pH (24 hr): dimesylate; for solubility at 24 h: above calibration range. The protocol:
The solubility Compound A⋅2MSA, Patterns A, B and I, was measured in water, fasted state simulated gastric fluid (FaSSGF) and fasted state simulated intestinal fluid (FaSSIF) at 37° C. by slurrying in the respective media for 24 hours. 1.5 mL of the fluid was stirred at 37° C. About 5 mg of the specified solid was added to FaSSIF and a thin slurry was immediately formed. As a test, approximately 80 and 60 mg of Pattern A was added to 1.5 mL of water and FaSSGF, respectively without formation of a slurry. Therefore, about 10 mg of the desired Pattern was added to water and FaSSGF solutions. The samples were allowed to stir at 37° C. for 24 hrs. The stir bars were removed from the FaSSIF vials and the solids allowed to settle for 0.5 hours at 37° C. The supernatant/solutions were syringe filtered and recovered for analysis by HPLC as well as for pH measurement.

Series [4] can be described thus: Karl-Fischer titration for water determination. As to conditions: dimesylate. On the procedure:
Karl-Fischer titration for water determination was done using a Mettler Toledo C20S Coulometric KF Titrator equipped with a current generator cell with a diaphragm, and a doubleplatinum-pin electrode. Aquastar™ CombiCoulomat fritless reagent was used in both the anode and cathode compartments. Samples of approximately 0.03-0.10 g were dissolved in the anode compartment and titrated until the solution potential dropped below 100 mV. Hydranal 1 wt. % water standard is used for validation prior to sample analysis.

A short description of series [5]: Storage at ambient conditions (XRPD). The following applies: 21-22° C., 10-40% RH, a week. The protocol:
Characterization after storage under ambient conditions: Pattern B was left at ambient conditions (21-22° C., 10-40% RH) for a week then characterized by)(RFD, TGA/DSC, and water content measured by Karl-Fischer titration. […] The water content was confirmed by KF titration which yielded a value of 4.20 wt. %.
Compound A⋅2MSA (Pattern A, 0.2622 g) was added to a 20 mL vial with a stir bar. Fifteen volumes (3.93 mL) of EtOH was added and the slurry was stirred overnight (˜20 hours). The slurry was sampled to confirm the correct pattern was generated, then the solids were collected by filtration. The resultant yellow solid was dried in a vacuum oven at 50° C. under dynamic vacuum for 2 hours, then under static vacuum overnight (˜16 hours) to yield 0.2015 g (77% yield). The in-situ sample drawn was dried for 3 hours then the solid was used for characterization by solution ^1H-NMR spectroscopy and simultaneous TGA/DSC. The bulk was dried overnight and used for stand-alone DSC, and thermal treatment.
as §1
Compound A⋅2MSA (Pattern A, 0.2659 g) was added to a 20 mL vial with a stir bar. Twenty-five volumes (6.65 mL) of ACN was added and the slurry was stirred overnight (˜20 hours). The slurry was sampled to confirm the correct pattern was generated, then the solids were collected by filtration. The resultant yellow solid was dried in a vacuum oven at 50° C. under dynamic vacuum for 2 hours, then under static vacuum overnight (˜16 hours) to yield 0.2255 g (85% yield). The sample drawn was dried for 3 hours then the solid was used for characterization by solution ^1H-NMR spectroscopy and simultaneous TGA/DSC. The bulk was dried overnight and used for stand-alone DSC.

In the case of `CS(=O)(=O)O.CS(=O)(=O)O.N#Cc1cccc(-c2ccc3ncc(-c4cc(F)cc(F)c4)c(N4CCC(N)CC4)c3c2)c1O` [Pattern B, 3-(4-(4-aminopiperidin-1-yl)-3-(3,5-difluorophenyl)quinolin-6-yl)-2-hydroxybenzonitrile dimesylate], the “XRPD form after the DVS experiment” value in series [1] (2-95% RH, dimesylate) is listed as “no change in form”. Moreover, in series [1] (between 2% and 95% Relative Humidity (RH), dimesylate), the “reversible water uptake (DVS)” value is 3.2 % w/w. Moreover, the “total mass difference (DVS)” value in series [1] (over the 2-95% RH range) is listed as 3.2 wt. %. Further, the “mass change (DVS)” value in series [1] (range of 10-80% RH) is 1.3 wt. %. The “XRPD pattern upon drying” value in series [2] (solids from short term slurries, vacuum oven at 50° C., minimum of 4 hours, dimesylate) is given as “stable upon drying”. Also, in series [2] (vacuum oven at 50° C. under static vacuum for 3 days), the “XRPD pattern after drying” value is reported as “matched Pattern B”. The comments result in series [3] (FaSSGF (pH 1.70), 24 hrs) is on record as “dissolved”; in series [3] (FaSSIF (pH 6.48), 24 hrs) it was “disproportionated”; in series [3] (water, 24 hrs), “dissolved”. For the same compound, the “pH (24 hr)” value in series [3] (FaSSGF (pH 1.70)) was 1.80; in series [3] (FaSSIF (pH 6.48)) it was 6.02; in series [3] (water), 3.08. The solubility at 24 h in series [3] (FaSSGF, 37 °C, pH 1.7, fassgf or other biorelevant, thermodynamic from solid, FaSSGF (pH 1.70), 24 hrs, mg of Compound A (free base), read-out: Concentration) was over 6.57 mg/mL; in series [3] (water, 37 °C, water, thermodynamic from solid, water, 24 hrs, mg of Compound A (free base), read-out: Concentration), over 6.25 mg/mL. In addition, in series [3] (FaSSIF, 37 °C, pH 6.48, fassif, thermodynamic from solid, FaSSIF (pH 6.48), 24 hrs, mg of Compound A (free base), read-out: Concentration), the solubility thermodynamic at 24 h was 0.011 mg/mL. In addition, the “Water Content” value in series [4] stood at 4.2% w/w. In series [5], the “XRPD pattern after storage at ambient conditions” value was “identical to Pattern B”.

(Values after US12617767B2, “Crystalline forms of somatostatin modulators” (Crinetics Pharmaceuticals, Inc., priority 2019, dated 2026).)
